Experimental data published in ChEMBL document CHEMBL1806478, “Synthesis of novel inhibitors of β-glucuronidase based on benzothiazole skeleton and study of their binding affinity by molecular docking” (Bioorg Med Chem, 2011).
Calls of active or inactive are those of the source. The rule behind the calls is not given here.

Tests used:
[1] = Inhibition of urease
[2] = biological target: T1, Beta-glucuronidase (Bos taurus) (UniProt A3KMY8); assay: (§1) Inhibition of bovine liver beta glucuronidase assessed as p-nitrophenol formation after 30 mins by spectrophotometric method
T1 sequence (whole entry): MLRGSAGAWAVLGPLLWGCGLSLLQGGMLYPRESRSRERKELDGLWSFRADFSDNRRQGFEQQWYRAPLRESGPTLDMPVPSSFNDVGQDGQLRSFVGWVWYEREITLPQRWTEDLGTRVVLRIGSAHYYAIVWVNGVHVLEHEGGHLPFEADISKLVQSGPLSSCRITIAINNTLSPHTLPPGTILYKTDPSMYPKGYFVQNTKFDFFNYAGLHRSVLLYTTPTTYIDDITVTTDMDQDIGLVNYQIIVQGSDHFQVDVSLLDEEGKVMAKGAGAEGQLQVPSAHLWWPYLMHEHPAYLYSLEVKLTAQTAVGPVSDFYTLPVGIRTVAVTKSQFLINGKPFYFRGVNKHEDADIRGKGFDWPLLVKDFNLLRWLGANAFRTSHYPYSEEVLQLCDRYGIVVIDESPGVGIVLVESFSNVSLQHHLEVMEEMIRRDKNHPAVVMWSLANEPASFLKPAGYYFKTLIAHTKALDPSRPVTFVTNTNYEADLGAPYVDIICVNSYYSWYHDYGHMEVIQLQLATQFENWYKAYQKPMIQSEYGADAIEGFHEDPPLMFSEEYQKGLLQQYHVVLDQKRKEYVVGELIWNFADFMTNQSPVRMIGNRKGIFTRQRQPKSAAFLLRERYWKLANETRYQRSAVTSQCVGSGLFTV

[3] = Inhibition of alpha-chymotrypsin
[4] = biological target: T1, Beta-glucuronidase (Bos taurus); assay: Inhibition of bovine liver beta glucuronidase assessed as p-nitrophenol formation at 0.2 mM after 30 mins by spectrophotometric method
[5] = system: CC-1; assay: Cytotoxic activity against Wistar rat CC1 cells assessed as cell viability at 1 to 20 ug/ml after 48 hrs by MTT assay; assay type: cell-based; conditions: cc-1, 48 h
[6] = biological target: T2, Beta-glucuronidase (Bos taurus, UniProt A3KMY8); assay: as §1
T2 sequence (A3KMY8 whole entry): T1 sequence (whole entry)

[7] = system: 3T3-L1; assay: Cytotoxic activity against mouse 3T3L1 cells assessed as cell viability at 1 to 20 ug/ml after 48 hrs by MTT assay; assay type: cell-based; conditions: 3t3-l1, 48 h
[8] = biological target: T1, Beta-glucuronidase (Bos taurus); assay: Ratio of D-saccharic acid 1,4-lactone IC50 to compound IC50 for bovine liver beta glucuronidase

Row | SMILES | inhibition [1] | inhibition [2] | inhibition [3] | inhibition [4] [%] | Activity [5] | IC50 [6] [µM] | Activity [7] | Ratio IC50 [8]
1 | Fc1ccccc1-c1nc2ccccc2s1 | inactive | inactive | inactive |  |  |  |  | 
2 | Cc1ccccc1-c1nc2ccccc2s1 | inactive |  | inactive | < 50 |  |  |  | 
3 | Oc1ccc(-c2nc3ccccc3s2)cc1O | inactive |  | inactive |  | Non-toxic | 94 | Non-toxic | 
4 | Oc1ccccc1-c1nc2ccccc2s1 | inactive |  | inactive |  | Non-toxic | 4.23 | Non-toxic | 12
5 | Brc1ccc(-c2nc3ccccc3s2)cc1 | inactive | inactive | inactive |  |  |  |  | 
6 | c1csc(-c2nc3ccccc3s2)c1 | inactive |  | inactive | < 50 |  |  |  | 
7 | Oc1cc(O)c(-c2nc3ccccc3s2)cc1O | inactive |  | inactive |  | Non-toxic | 2.26 | Non-toxic | 24
8 | CN(C)c1ccc(-c2nc3ccccc3s2)cc1 | inactive | inactive | inactive |  |  |  |  | 
9 | Clc1ccc(-c2nc3ccccc3s2)cc1 | inactive |  | inactive | < 50 |  |  |  | 
10 | Oc1cccc(-c2nc3ccccc3s2)c1 | inactive |  | inactive |  | Non-toxic | 36.1 | Non-toxic | 
11 | c1ccc2cc(-c3nc4ccccc4s3)ccc2c1 | inactive |  | inactive | < 50 |  |  |  | 
12 | COc1ccc(-c2nc3ccccc3s2)cc1OC | inactive | inactive | inactive |  |  |  |  | 
13 | Clc1cccc(-c2nc3ccccc3s2)c1 | inactive |  | inactive | < 50 |  |  |  | 
14 | Cc1ccc(-c2nc3ccccc3s2)cc1 | inactive |  | inactive | < 50 |  |  |  | 
15 | CCOc1cccc(-c2nc3ccccc3s2)c1O | inactive | inactive | inactive |  |  |  |  | 
16 | COc1cccc(-c2nc3ccccc3s2)c1O | inactive |  | inactive | < 50 |  |  |  | 
17 | Oc1ccc(-c2nc3ccccc3s2)c(O)c1 | inactive |  | inactive |  | Non-toxic | 19.4 | Non-toxic | 
18 | Oc1cccc(-c2nc3ccccc3s2)c1O | inactive |  | inactive | < 50 |  |  |  | 
19 | Clc1ccc(-c2nc3ccccc3s2)c(Cl)c1 | inactive | inactive | inactive |  |  |  |  | 
20 | Oc1ccc(O)c(-c2nc3ccccc3s2)c1 | inactive |  | inactive |  | Non-toxic | 8.9 | Non-toxic | 
21 | CCOc1ccc(-c2nc3ccccc3s2)cc1 | inactive | inactive | inactive |  |  |  |  | 
22 | Oc1ccc(-c2nc3ccccc3s2)cc1 | inactive |  | inactive |  | Non-toxic | 8.9 | Non-toxic | 
23 | Oc1ccc(Cl)cc1-c1nc2ccccc2s1 | inactive |  | inactive | < 50 |  |  |  | 
24 | c1ccc2sc(-c3ccncc3)nc2c1 | inactive |  | inactive | < 50 |  |  |  | 
25 | c1cncc(-c2nc3ccccc3s2)c1 | inactive | inactive | inactive |  |  |  |  | 
26 | Clc1ccc(-c2nc3ccccc3s2)cc1Cl | inactive |  | inactive | < 50 |  |  |  | 
